For this assay, the target named is T1, MMP-1 cleaved type I collagen (Rattus norvegicus, UniProt P02454+P02466).
T1 construct: purchased BD Science (collagen); EMD Millipore (ProMMP-1); host or cells: rat tail; digested in house
The assay can be described thus: Photo-triggered CMP binding assay on MMP-1 digested collagen. The following applies: MMP-1 digested collagens after the 37° C. incubation; UV-activated. Here is the method:
MMP-1 digestion of type I collagen and CMP binding assays. ProMMP-1 (1 μg, EMD Millipore) was activated by p-aminophenylmercuric acetate (1.1 mM) in 132.5 μL of TNC buffer (50 mM Tris-HCl, 0.15 M NaCl, 5 mM CaCl2, 0.02% NaN3, pH 7.5) at 37° C. for 3 hr. Type I collagen (62.6 μg) was subsequently added to the MMP-1 solution and incubated at room temperature for at least 3 days. Digested products were analyzed by SDS-PAGE and circular dichroism spectroscopy (FIG. 12). Wells of nunc black 96-well maxisorp plate were charged with 50 μL of TNC buffer containing 0.5 M glycerol, and 100 μg/mL collagen or MMP-1 cleaved collagen, and incubated at room temperature. The collagen solutions used were either kept at room temperature (22° C.) or incubated at 37° C. for 1 minute just prior to coating. […] Wells were washed extensively with PBSB followed by fluorescence (ex: 489 nm, em: 533 nm) reading with a SpectraMax M-2 microplate reader (Molecular Devices). […] The background fluorescence of empty wells was subtracted from the raw fluorescence data. For estimating the amount of adsorbed protein, un-blocked collagen-coated wells were treated with 100 μM 5-(4,6-dichlorotriazinyl)aminofluorescein (DTAF, 50 μL, in 0.1 M sodium borate buffer) at room temperature for 3 hours, and the fluorescence (ex: 489 nm, em: 533 nm) of the well was measured after washing with 1×PBS. […]

T1 sequence (P02454 152-942 limits assumed): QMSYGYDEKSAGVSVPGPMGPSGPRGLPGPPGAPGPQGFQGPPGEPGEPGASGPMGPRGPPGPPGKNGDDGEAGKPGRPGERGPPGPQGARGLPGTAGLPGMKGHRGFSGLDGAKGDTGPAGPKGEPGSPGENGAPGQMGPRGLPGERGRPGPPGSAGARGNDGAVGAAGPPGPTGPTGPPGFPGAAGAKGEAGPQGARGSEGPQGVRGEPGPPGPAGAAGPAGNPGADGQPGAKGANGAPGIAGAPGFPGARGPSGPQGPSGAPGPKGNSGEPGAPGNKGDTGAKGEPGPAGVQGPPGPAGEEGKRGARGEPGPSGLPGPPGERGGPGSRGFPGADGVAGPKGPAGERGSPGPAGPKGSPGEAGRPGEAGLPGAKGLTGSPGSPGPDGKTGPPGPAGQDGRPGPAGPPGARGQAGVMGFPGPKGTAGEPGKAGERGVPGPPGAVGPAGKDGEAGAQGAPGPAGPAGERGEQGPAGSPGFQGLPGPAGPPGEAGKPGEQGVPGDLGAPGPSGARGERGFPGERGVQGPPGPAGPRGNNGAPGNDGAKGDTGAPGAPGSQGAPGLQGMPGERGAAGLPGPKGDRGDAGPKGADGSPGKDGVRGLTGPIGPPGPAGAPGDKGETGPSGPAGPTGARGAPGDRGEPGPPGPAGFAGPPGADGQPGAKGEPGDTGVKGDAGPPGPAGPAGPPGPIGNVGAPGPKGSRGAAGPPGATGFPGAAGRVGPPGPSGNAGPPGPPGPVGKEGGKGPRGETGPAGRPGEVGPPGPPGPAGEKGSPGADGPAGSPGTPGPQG
T1 sequence (P02454 943-1207 limits assumed): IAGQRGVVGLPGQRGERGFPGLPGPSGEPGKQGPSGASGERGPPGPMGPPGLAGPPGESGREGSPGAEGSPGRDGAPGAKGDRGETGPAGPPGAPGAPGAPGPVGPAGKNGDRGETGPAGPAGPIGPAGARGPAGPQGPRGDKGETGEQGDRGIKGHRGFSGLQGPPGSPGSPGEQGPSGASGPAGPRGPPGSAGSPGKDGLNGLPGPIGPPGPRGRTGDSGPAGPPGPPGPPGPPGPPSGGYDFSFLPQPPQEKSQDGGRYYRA
T1 sequence (P02466 86-871 limits assumed): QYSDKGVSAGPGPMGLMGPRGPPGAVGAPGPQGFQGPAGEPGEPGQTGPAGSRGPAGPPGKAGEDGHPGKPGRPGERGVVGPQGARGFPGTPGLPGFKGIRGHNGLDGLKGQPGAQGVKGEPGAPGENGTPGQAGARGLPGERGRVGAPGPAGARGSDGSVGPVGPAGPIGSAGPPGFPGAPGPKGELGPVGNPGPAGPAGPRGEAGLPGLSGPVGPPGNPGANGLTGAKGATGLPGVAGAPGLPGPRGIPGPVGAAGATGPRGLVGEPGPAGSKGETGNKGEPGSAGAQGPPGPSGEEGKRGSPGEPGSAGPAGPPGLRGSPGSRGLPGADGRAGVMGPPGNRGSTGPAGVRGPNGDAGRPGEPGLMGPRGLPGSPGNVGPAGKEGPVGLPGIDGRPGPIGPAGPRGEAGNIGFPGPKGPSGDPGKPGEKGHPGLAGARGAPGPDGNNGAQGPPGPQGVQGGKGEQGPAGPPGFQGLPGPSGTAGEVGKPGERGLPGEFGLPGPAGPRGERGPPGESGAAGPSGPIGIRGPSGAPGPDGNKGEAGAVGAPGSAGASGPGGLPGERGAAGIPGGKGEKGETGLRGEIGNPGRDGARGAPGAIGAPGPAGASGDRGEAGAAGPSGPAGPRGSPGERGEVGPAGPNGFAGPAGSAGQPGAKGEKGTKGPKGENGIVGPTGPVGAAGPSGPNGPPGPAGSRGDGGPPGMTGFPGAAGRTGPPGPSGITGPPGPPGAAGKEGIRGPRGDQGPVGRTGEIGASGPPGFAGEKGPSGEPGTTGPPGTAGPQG
T1 sequence (P02466 872-1125 limits assumed): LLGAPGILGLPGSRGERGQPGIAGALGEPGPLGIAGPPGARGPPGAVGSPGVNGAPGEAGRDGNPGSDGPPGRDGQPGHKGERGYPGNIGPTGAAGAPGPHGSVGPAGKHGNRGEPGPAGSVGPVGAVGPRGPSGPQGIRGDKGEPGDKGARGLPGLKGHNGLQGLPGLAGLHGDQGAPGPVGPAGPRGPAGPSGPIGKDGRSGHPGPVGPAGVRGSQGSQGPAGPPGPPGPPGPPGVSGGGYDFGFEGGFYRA

For the substance CF-GGG-(GPO)4^NBGPO(GPO)4 [CF^NB(GPO)9], the “level of CMP binding, fold higher compared to all other collagens tested” value was 4-10 fold.
